Laboratory results published in US6143780A, “N-arylmethylthioanilide compounds useful for the inhibition of the replication of HIV” (Uniroyal Chemical Company, Inc., priority 1999, dated 2000).
Converted amounts (≈) assume the structure as drawn. “And” between values parts separate entries of the source, which are not always exact repeats. Identical values can stand only once. Like-named read-outs stand apart in the source and are kept apart here.

Columns and labels:
Assay type in all cases: cell-based
HIV-1/106-Ala = experiment: inhibition of syncytium formation in CEM cells, HIV-1 RT mutant 106-Ala; conditions: Human immunodeficiency virus 1, CCRF-CEM, 96 h, read-out: EC50 106-Ala
From the text: (§1) CEM cells were obtained from the American Tissue Cell Culture Collection (Rockville, Md.) . HIV-1 (IIIB) was originally obtained from the culture supernatant of persistently HIV-1-infected H9 cells and was provided by R. C. Gallo and M. Popovic (National Cancer Institute, National Institutes of Health, Bethesda, Md.).
(§2) The selection and characterization of the HIV-1 RT mutant strains were done as follows: HIV-1/100-Ile ("100-Ile") was selected for resistance against TIBO R82150 as described in Balzarini et al, Virology 192: 246-253 (1993); HIV-1/103-Asn ("103-Asn") was selected for resistance against TIBO R82913 as described in Balzarini et al, Virology 192: 246-253 (1993); HIV-1/106-Ala ("106-Ala") was selected for resistance against nevirapine as described in Balzarini et al, J. Virol. 67: 5353-5359 (1993); HIV-1/Lys-138 ("Lys-138") was selected for resistance against TSAO-m^3T as described in Balzarini et al, Virology 192: 246-253 (1993) and Balzarini et al, Proc. Nat. Acad. Sci. USA 90: 6952-6956 (1993); HIV-1/181-Cys ("181-Cys") was selected for resistance against pyridinone L-697,661 as described in Balzarini et al, Virology 192: 246-253 (1993); and HIV-1/188-His ("188-His") was selected for resistance against HEPT as described in Balzarini et al, Mol. Pharmocol. 44: 694-701 (1993). 188-His was then further converted to HIV-1/188-Leu ("188-Leu") upon further passage in cell culture in the absence of the HEPT. HIV-1/101-Glu ("101-Glu") and HIV-1/190-Glu ("190-Glu") were selected for resistance against the thiocarboxanilide derivative designated as UC38 as described in Balzarini et al, Antiviral Research 27: 219-236 (1995). HIV-1/184-Ile ("184-Ile") was selected for resistance against the combination of 3TC and TSAO-m^3 T as described in Balzarini et al, Molecular Pharm. 49: 882-890 (1996). HIV-1/184-Val ("184-Val") was selected for resistance against 3TC as described in Balzarini et al, Molecular Pharm. 49: 882-890 (1996).
(§3) CEM cells were suspended at ≈300,000 cells per ml of culture medium and infected with approximately 100 CCID50 (CCID50 being the 50% cell culture infective dose) of HIV-1(IIIB) (designated as "WT" in Table 3) or one of the HIV-1 RT mutant strains described above. Then 100 μl of the infected cell suspensions was added to 200 μl microtiter plate wells containing 100 μl of appropriate serial (5-fold) dilutions of the test compounds. The inhibitiory effect of the test compounds on HIV-1 induced syncytium formation in CEM cells was examined microscopically on day 4 post infection. The 50% effective concentration (EC50) was defined as the test compound concentration that inhibits syncytium formation in the HIV-1-infected cell cultures by 50%.

HIV-1 (IIIB) = experiment: inhibition of HIV-1(IIIB) (WT) induced syncytium formation in CEM cells
From the text: as §1, §3

HIV-1/190-Glu = experiment: inhibition of syncytium formation in CEM cells, HIV-1 RT mutant 190-Glu; conditions: Human immunodeficiency virus 1, CCRF-CEM, 96 h, read-out: EC50 190-Glu
From the text: as §1, §2, §3

HIV-1/188-Leu = experiment: inhibition of syncytium formation in CEM cells, HIV-1 RT mutant 188-Leu; conditions: Human immunodeficiency virus 1, CCRF-CEM, 96 h, read-out: EC50 188-Leu
From the text: as §1, §2, §3

HIV-1/100-Ile = experiment: inhibition of syncytium formation in CEM cells, HIV-1 RT mutant 100-Ile; conditions: Human immunodeficiency virus 1, CCRF-CEM, 96 h, read-out: EC50 100-Ile
From the text: as §1, §2, §3

HIV-1/188-His = experiment: inhibition of syncytium formation in CEM cells, HIV-1 RT mutant 188-His; conditions: Human immunodeficiency virus 1, CCRF-CEM, 96 h, read-out: EC50 188-His
From the text: as §1, §2, §3

HIV-1/184-Ile = experiment: inhibition of syncytium formation in CEM cells, HIV-1 RT mutant 184-Ile; conditions: Human immunodeficiency virus 1, CCRF-CEM, 96 h, read-out: EC50 184-IIe
From the text: as §1, §2, §3

HIV-1/184-Val = experiment: inhibition of syncytium formation in CEM cells, HIV-1 RT mutant 184-Val; conditions: Human immunodeficiency virus 1, CCRF-CEM, 96 h, read-out: EC50 184-Val
From the text: as §1, §2, §3

138-Lys = experiment: inhibition of syncytium formation in CEM cells, HIV-1 RT mutant 138-Lys; conditions: Human immunodeficiency virus 1, CCRF-CEM, 96 h, read-out: EC50 138-Lys
From the text: as §1, §2, §3

103-Ala = experiment: inhibition of syncytium formation in CEM cells, HIV-1 RT mutant 103-Ala; conditions: Human immunodeficiency virus 1, CCRF-CEM, 96 h, read-out: EC50 103-Ala
HIV-1/101-Glu = experiment: inhibition of syncytium formation in CEM cells, HIV-1 RT mutant 101-Glu; conditions: Human immunodeficiency virus 1, CCRF-CEM, 96 h, read-out: EC50 101-Glu
From the text: as §1, §2, §3

HIV-1/181-Cys = experiment: inhibition of syncytium formation in CEM cells, HIV-1 RT mutant 181-Cys; conditions: Human immunodeficiency virus 1, CCRF-CEM, 96 h, read-out: EC50 181-Cys
From the text: as §1, §2, §3

[1] = Human immunodeficiency virus 1, IIIB, CCRF-CEM, 96 h, Table 2, day 4 post infection, replicate values, read-out: EC50, Activity Against HIV-1 (IIIB)
[2] = Human immunodeficiency virus 1, IIIB, CCRF-CEM, 96 h, Table 3, HIV-1(IIIB), day 4 post infection, read-out: EC50 WT
[3] = Table 2, day 4 post infection, replicate values, read-out: EC50, Activity Against HIV-1 (IIIB)

SMILES | EC50 (HIV-1/106-Ala) [µg/mL] | EC50 (HIV-1 (IIIB); [1]) [nM] | EC50 (HIV-1 (IIIB); [2]) [µg/mL] | EC50 (HIV-1 (IIIB); [3]) | EC50 (HIV-1/190-Glu) [µg/mL] | EC50 (HIV-1/188-Leu) [µg/mL] | EC50 (HIV-1/100-Ile) [µg/mL] | EC50 (HIV-1/188-His) [µg/mL] | EC50 (HIV-1/184-Ile) [µg/mL] | EC50 (HIV-1/184-Val) [µg/mL] | EC50 (138-Lys) [µg/mL] | EC50 (103-Ala) [µg/mL] | EC50 (HIV-1/101-Glu) [µg/mL] | EC50 (HIV-1/181-Cys) [µg/mL]
Cc1occc1C(=S)Nc1ccc(Cl)c(COc2ccc(F)cc2Cl)c1 [Compound 47] | > 2 | 1030 | 0.018 | 516 nM | > 2 | > 2 | 0.65 | 2 | 0.12 | 0.05 | 0.64 | > 2 | 1.47 | 1
CC(=O)OCc1ccccc1OCc1cc(NC(=S)c2ccoc2C)ccc1Cl [Compound 15] | > 2 |  | 0.49 |  | ≥ 2 | > 2 | > 2 | > 2 | 1.2 | 0.5 | > 2 | > 2 | > 2 | > 2
COc1cccc(F)c1OCc1cc(NC(=S)c2ccoc2C)ccc1Cl [Compound 34] | 0.1 |  | 0.0022 | 5.65 nM and 17.4 nM | > 2 | 0.53 | 0.16 | 0.5 | 0.0087 | 0.005 | 0.02 | 0.85 (≈ 2.09 µM) | 0.12 | 0.1
Cc1occc1C(=S)Nc1ccc(Cl)c(COc2cccc([N+](=O)[O-])c2)c1 [Compound 27] | 1.57 |  | 0.03 | 121 nM and 340 nM | > 2 | > 2 | 0.7 | > 2 | 0.11 | 0.4 | 0.23 | > 2 | 0.55 | 0.5
Cc1occc1C(=S)Nc1ccc(Cl)c(COc2c(F)ccc(F)c2F)c1 [Compound 45] | 0.025 |  | 0.0017 |  | > 2 | 1.5 | 0.11 | 0.85 | 0.005 | 0.0027 | 0.012 | 0.4 (≈ 0.971 µM) | 0.04 | 0.065
Cc1occc1C(=S)Nc1ccc(Cl)c(COc2ccccc2F)c1 [Compound 18] | 1.1 | 117 | 0.0053 | 111 nM | > 2 | > 2 | 0.077 | 1.73 | 0.032 | 0.008 | 0.53 | > 2 | 0.24 | 0.1
Cc1occc1C(=S)Nc1ccc(Cl)c(COc2ccccc2[N+](=O)[O-])c1 [Compound 19] | 0.13 | 27.1 | 0.0023 | 39.3 nM | > 2 | 1.35 | 0.08 | 0.12 | 0.0045 | 0.0041 | 0.0075 | 0.52 (≈ 1.29 µM) | 0.17 | 0.13
Cc1occc1C(=S)Nc1ccc(Cl)c(COc2ccccc2Br)c1 [Compound 40] | 0.85 |  | 0.02 | 35.3 nM and 46 nM and 16.8 nM | > 2 | 0.7 | 1.73 | 0.4 | 0.04 | 0.018 | 0.09 | > 2 | 0.4 | 0.75
CCCc1ccccc1OCc1cc(NC(=S)c2ccoc2C)ccc1Cl [Compound 43] | > 2 |  | 0.03 | 42.5 nM and 118 nM | > 2 | > 2 | 1.14 | 0.65 | 0.13 | 0.04 | 0.31 | > 2 | 1.35 | > 0.4
COc1ccccc1OCc1cc(NC(=S)c2ccoc2C)ccc1Cl [Compound 22] | 1 | 160 | 0.011 | 209 nM | > 2 | > 2 | 0.4 | 0.85 | 0.025 | 0.018 | 0.075 | 2.73 (≈ 7.04 µM) | 0.75 | 0.41
